Experimental data taken from patent US5705487A, “Antithrombotic agents” (priority 1995, dated 1998).

What was measured:
[1] = Index of bioavailability (% relative activity from plasma TT, oral vs i.v.); type: in vivo, rat; details: AUC of plasma TT time course, p.o. vs i.v. bolus, dose adjusted
Procedure: Parke Davis) at 37° C. […] Assays are done in duplicate and averaged. […] Each sample population represented alternating sequential time points.

Human Plasma [2] = experiment: Human plasma anticoagulation, activated partial thromboplastin time (APTT); type: biochemical; details: concentration required to double the clotting time
Procedure, shortened: (§1)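 Prolongation of human plasma clotting was measured for PT (thromboplastin reagent), APTT (Actin, 120 s, then 0.02M CaCl2) and TT (bovine thrombin, 10 NIH units/mL). Concentration needed for a doubled time was estimated by linear extrapolation.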

Human Plasma [3] = experiment: Human plasma anticoagulation, prothrombin time (PT); type: biochemical; details: concentration required to double the clotting time
Procedure, shortened: as §1

t-PA = target: T1, t-PA (Homo sapiens, UniProt P00750); experiment: Kass, t-PA chromogenic substrate assay; type: biochemical; details: substrate H-D-Ile-Pro-Arg-p-nitroanilide
T1 construct: purchased American Diagnostica, Greenwich, Conn
Procedure: (§2) By substantially following the procedures described above for human thrombin, and using other human blood coagulation system serine proteases and proteases of the fibrinolytic system with the appropriate chromogenic substrates, identified below, selectivity of the compounds of the present invention with respect to the coagulation factor serine proteases and with respect to the fibrinolytic system serine proteases are evaluated as well as their substantial lack of interference with serine proteases of the fibrinolytic system.
(§3) Human plasmin is purchased from Boehringer Mannheim, Indianapolis, Ind.; nt-PA is purchased as single chain activity reference from American Diagnostica, Greenwich, Conn.; modified-t-PA6 (mt-PA6) is prepared at Eli Lilly and Company by procedure known in the art (See, Burck, et al., J. Biol. Chem., 265, 5120-5177 (1990). Plasmin chromogenic substrate H-D-Val-Leu-Lys-p-nitroanilide and tissue plasminogen activator (t-PA) substrate H-D-Ile-Pro-Arg-p-nitroanilide are purchased from Kabi Vitrum, Stockholm, Sweden.

Bovine trypsin = target: T2, Bovine trypsin (Bos taurus, UniProt P00760); experiment: Kass, trypsin chromogenic substrate assay; type: biochemical; details: substrate N-Benzoyl-Phe-Val-Arg-p-nitroanilide
T2 construct: Bovine trypsin is purchased from Worthington Biochemicals; purchased Worthington Biochemicals, Freehold, N.J
T2 sequence (P00760 24-246): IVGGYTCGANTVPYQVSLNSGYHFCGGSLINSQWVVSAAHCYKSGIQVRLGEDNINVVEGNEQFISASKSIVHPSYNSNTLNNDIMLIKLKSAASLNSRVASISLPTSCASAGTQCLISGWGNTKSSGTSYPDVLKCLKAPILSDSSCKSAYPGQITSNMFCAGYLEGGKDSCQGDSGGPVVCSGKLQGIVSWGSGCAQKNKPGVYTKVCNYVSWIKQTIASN

Human Thrombin = Human Thrombin (Homo sapiens, UniProt P00734); experiment: Inhibition of the amidase activity of thrombin (Kass); type: biochemical; details: chromogenic substrate N-benzoyl-Phe-Val-Arg-p-nitroanilide; mean over range of concentrations
Human plasmin = target: T3, Human plasmin (Homo sapiens, UniProt P00747); experiment: Kass, plasmin chromogenic substrate assay; type: biochemical; details: substrate H-D-Val-Leu-Lys-p-nitroanilide
T3 construct: Human plasmin is purchased from Boehringer Mannheim; purchased Boehringer Mannheim, Indianapolis, Ind
Procedure: as §2, §3

Human Plasma [4] = experiment: Human plasma anticoagulation, thrombin time (TT); type: biochemical; details: concentration required to double the clotting time
Procedure, shortened: as §1

factor Xa = target: T4, factor Xa (Homo sapiens, UniProt P00742); experiment: Kass, factor Xa chromogenic substrate assay; type: biochemical; details: substrate N-Benzoyl-Ile-Glu-Gly-Arg-p-nitroanilide
T4 construct: Human factors X, Xa, IXa, XIa, and XIIa are purchased; purchased Enzyme Research Laboratories, South Bend, Ind

[5] = Arterio-Venous shunt model; type: in vivo, rat; details: during infusion reducing thrombus weight to approximately 20% of control
Procedure: The left jugular vein and right carotid artery are cannulated with 20 cm lengths of polyethylene PE 60 tubing. A 6 cm center section of larger tubing (PE 190) with a cotton thread (5 cm) in the lumen, is friction fitted between the longer sections to complete the arterio-venous shunt circuit. Blood circulated through the shunt for 15 minutes before the thread is carefully removed and weighed. The weight of a wet thread is subtracted from the total weight of the thread and thrombus (see J. R. Smith, Br. J. Pharmacol., 77,29 (1982)).
Assays are done in duplicate and averaged.

[6] = Simoons et al., Circulation, 90, I-231 (1994); cited from earlier work

T3 sequence (P00747 581-810 limits assumed): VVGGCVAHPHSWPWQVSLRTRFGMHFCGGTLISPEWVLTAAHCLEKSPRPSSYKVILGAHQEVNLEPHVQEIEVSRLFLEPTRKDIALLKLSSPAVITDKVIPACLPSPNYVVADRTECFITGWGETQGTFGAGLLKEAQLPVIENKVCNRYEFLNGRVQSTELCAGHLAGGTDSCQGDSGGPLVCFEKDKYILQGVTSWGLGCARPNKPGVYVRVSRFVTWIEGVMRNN
T3 sequence (P00747 97-580 partner limits assumed): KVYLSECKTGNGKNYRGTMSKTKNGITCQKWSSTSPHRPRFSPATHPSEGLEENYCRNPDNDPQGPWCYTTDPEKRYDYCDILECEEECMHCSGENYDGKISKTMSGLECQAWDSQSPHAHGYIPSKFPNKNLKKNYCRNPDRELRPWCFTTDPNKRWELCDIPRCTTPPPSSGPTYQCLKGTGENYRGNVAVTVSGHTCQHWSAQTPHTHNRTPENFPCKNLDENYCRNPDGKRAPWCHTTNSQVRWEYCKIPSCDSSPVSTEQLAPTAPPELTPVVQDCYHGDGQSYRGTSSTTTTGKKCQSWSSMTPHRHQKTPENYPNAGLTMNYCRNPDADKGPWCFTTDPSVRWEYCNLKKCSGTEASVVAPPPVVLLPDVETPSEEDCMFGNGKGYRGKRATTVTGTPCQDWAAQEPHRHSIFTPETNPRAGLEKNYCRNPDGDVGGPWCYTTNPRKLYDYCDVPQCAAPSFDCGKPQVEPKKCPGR
T4 sequence (P00742 235-488 limits assumed): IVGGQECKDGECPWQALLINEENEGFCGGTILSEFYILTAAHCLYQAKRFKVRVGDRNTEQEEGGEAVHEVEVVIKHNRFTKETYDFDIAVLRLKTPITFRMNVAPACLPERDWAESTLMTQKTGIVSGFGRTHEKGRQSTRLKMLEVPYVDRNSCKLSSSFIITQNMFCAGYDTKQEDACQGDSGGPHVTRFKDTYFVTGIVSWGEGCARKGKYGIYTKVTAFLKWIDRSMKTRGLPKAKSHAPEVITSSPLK
T4 sequence (P00742 41-179 partner limits assumed): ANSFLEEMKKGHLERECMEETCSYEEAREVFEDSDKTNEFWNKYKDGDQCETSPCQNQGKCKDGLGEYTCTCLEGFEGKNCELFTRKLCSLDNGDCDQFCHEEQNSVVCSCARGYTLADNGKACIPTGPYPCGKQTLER
T1 sequence (P00750 36-562): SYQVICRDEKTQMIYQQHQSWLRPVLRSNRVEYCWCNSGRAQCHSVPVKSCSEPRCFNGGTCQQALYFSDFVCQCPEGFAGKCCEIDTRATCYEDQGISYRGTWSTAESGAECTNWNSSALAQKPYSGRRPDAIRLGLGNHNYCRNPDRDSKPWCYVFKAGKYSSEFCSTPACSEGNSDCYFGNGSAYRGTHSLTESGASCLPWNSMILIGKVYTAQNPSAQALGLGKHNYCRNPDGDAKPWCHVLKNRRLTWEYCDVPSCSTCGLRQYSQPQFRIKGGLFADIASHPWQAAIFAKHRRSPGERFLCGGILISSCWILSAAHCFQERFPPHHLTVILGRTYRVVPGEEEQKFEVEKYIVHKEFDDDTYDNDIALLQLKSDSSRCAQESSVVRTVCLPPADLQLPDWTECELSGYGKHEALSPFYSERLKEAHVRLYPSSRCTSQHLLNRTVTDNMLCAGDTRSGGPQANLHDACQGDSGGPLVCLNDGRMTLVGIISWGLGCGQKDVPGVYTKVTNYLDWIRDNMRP

| Structure (SMILES) | % oral/i.v. activity (Rat) [1] | Human Plasma Anticoagulation 2x Clotting time APTT (Human Plasma [2]) | Human Plasma Anticoagulation 2x Clotting time PT (Human Plasma [3]) | Kass × 10^6 (L/mole) t-PA (t-PA) | Kass × 10^6 (L/mole) Trypsin (Bovine trypsin) | Kass × 10^6 (L/mole) Human Thrombin (Human Thrombin) | Kass × 10^6 (L/mole) Plasmin (Human plasmin) | Human Plasma Anticoagulation 2x Clotting time TT (Human Plasma [4]) | Kass × 10^6 (L/mole) Xa (factor Xa) | PTT extended [5] | anticoagulant in man [6] |
| --- | --- | --- | --- | --- | --- | --- | --- | --- | --- | --- | --- |
| CCS(=O)(=O)N[C@H](Cc1ccccc1)C(=O)N1CCC[C@H]1C(=O)NCCCCN=C(N)N.Cl [Example 1, EtSO2 -D-Phe-Pro-Agm.HCl] | 8% |  |  |  |  |  |  |  |  |  |  |
| Cl.Cl.Cl.N=C(N)c1ccc(CNC(=O)[C@@H]2C[C@@H]3CCCC[C@@H]3N2C(=O)[C@H]2CCCCN2)cc1 (relative stereo) [Example 20, D-hPro-Ohi-p-NHCH2 C6 H4 C(NH)NH2.3HCl] | 23% | 550 ng/mL | 600 ng/mL | 0.0077 × 10^6 L/mole | 19 × 10^6 L/mole | 10 × 10^6 L/mole | 0.10 × 10^6 L/mole | 62 ng/mL | 0.10 × 10^6 L/mole |  |  |
| Cl.N=C(N)c1ccc(CNC(=O)[C@@H]2CCCN2C(=O)[C@@H](CC2CCCCC2)NCC(=O)O)cc1 [Example 48, HOOCCH2 -D-Cha-Pro-p-NHCH2 C6 H4 C(NH)NH2.HCl] |  |  |  |  |  |  |  | 2. ng/mL |  | about 120 % of control |  |
| CN[C@H](Cc1ccccc1)C(=O)N1CCC[C@H]1C(=O)N[C@H](C=O)CCCNC(=N)N.O=S(=O)(O)O [D-MePhe-Pro-Arg-H sulfate] |  |  |  |  |  |  |  |  |  |  | is an anticoagulant in man |
| Cl.O=C(O)CN[C@H](CC1CCCCC1)C(=O)N1CCC[C@H]1C(=O)NCC1=CCNCC1 [Example 58, HO2 CCH2 -D-Cha-Pro-4-NHCH2 -3,4-dehydropiperidine.HCl] |  | 14,300 ng/mL | 11,400 ng/mL | < 0.001 × 10^6 L/mole | 0.40 × 10^6 L/mole | 0.60 × 10^6 L/mole | < 0.001 × 10^6 L/mole | 710 ng/mL | < 0.001 × 10^6 L/mole |  |  |
| N=C(N)c1ccc(CCNC(=O)[C@@H]2CCCN2C(=O)[C@@H]2NCC[C@@H]3CCCC[C@@H]32)cc1 [Example 28, 1-Piq-Pro-p-NHCH2 CH2 -C6 H4 C(=NH)NH2.2HCl] |  | 8,100 ng/mL | 8,300 ng/mL | < 0.001 × 10^6 L/mole | 0.11 × 10^6 L/mole | 0.95 × 10^6 L/mole | < 0.001 × 10^6 L/mole | 520 ng/mL | 0.01 × 10^6 L/mole |  |  |
